According to patent EP3227262B1, “SULFIDE ALKYL AND PYRIDYL REVERSE SULFONAMIDE COMPOUNDS FOR HBV TREATMENT” (Novira Therapeutics Inc., priority 2014, dated 2016):

test system: HBV; test: Inhibition of HBV replication dot-blot assay in HBV-producing hepatoma cell line; format: cell-based; conditions: Hepatitis B virus, 144 h; activity in Dot-Blot assay; HepG2-2.2.15 cells; reduction in HBV DNA levels, six days
Description: Compounds active in the HBV assembly assay are tested for their activity and toxicity in cellular assay. In the first anti-viral assay, the ability of compounds to inhibit HBV replication in an HBV-producing hepatoma cell line using the dot-blot method is evaluated.
(§1) Briefly, confluent monolayers of HepG2-2.2.15 cells are incubated with complete medium containing various concentrations of a test compound. Three days later, the culture medium is replaced with fresh medium containing the appropriately diluted test compound. Six days following the initial administration of the test compound, the cell culture supernatant is collected, and cell lysis is performed. The samples are applied onto Nylos membranes and DNA is immobilized to the membrane by UV cross-linking. After pre-hybridization, the HBV probe is added and the hybridization is performed overnight. The membranes are exposed to the KODAK films; antiviral activity is calculated from the reduction in HBV DNA levels (EC50). The EC50 for antiviral activity is calculated from the dose response curves of active compounds. Assay performance over time is monitored by the use of the standard positive control compounds ETV, BAY 41-4109, and HAP-1.
Selected compounds are tested for their activity and toxicity in cellular assay. In the first anti-viral assay, the ability of compounds to inhibit HBV replication in an HBV-producing hepatoma cell line using the dot-blot method is evaluated.
as §1, with “Confluent monolayers” for “Briefly, confluent monolayers”, “lysis was” for “lysis is”

SMILES | EC50
O=C(Nc1ccc(F)c(Cl)c1)c1ccc(F)c(SC2CCCCC2F)c1 (racemic) [Compound 72, (±)-N-(3-Chloro-4-fluorophenyl)-4-fluoro-3-((2-fluorocyclohexyl)thio)benzamide] | < 10 µM
O=C(O)CC1CCC(Sc2cc(C(=O)Nc3cc(F)c(F)c(F)c3)ccc2F)C1 (racemic) [Compound 101, (±)-2-(3-((2-Fluoro-5-((3,4,5-trifluorophenyl)carbamoyl)phenyl)thio)cyclopentyl)acetic acid] | < 10 µM
O=C(O)CC1CCC(Sc2cc(C(=O)Nc3ccc(F)c(Cl)c3)ccc2F)C1 (racemic) [Compound 102, (±)-2-(3-((5-((3-Chloro-4-fluorophenyl)carbamoyl)-2-fluorophenyl)thio)cyclopentyl)acetic acid] | < 10 µM
O=C(O)CC1CCC(Sc2cc(C(=O)Nc3ccc(F)c(F)c3)ccc2F)C1 (racemic) [Compound 105, (±)-2-(3-((5-((3,4-Difluorophenyl)carbamoyl)-2-fluorophenyl)thio)cyclopentyl)acetic acid] | < 10 µM
O=C(Nc1ccc(F)c(Cl)c1)c1ccnc(NS(=O)(=O)C2CCOC2)c1 (racemic) [Compound 161, (±)-N-(3-Chloro-4-fluorophenyl)-2-(tetrahydrofuran-3-sulfonamido)isonicotinamide] | < 10 µM
O=C(Nc1ccc(F)c(Cl)c1)c1ccnc(NS(=O)(=O)C2CCCOC2)c1 (racemic) [Compound 179, (±)-N-(3-Chloro-4-fluorophenyl)-2-(tetrahydro-2H-pyran-3-sulfonamido)isonicotinamide] | < 10 µM
O=C(Nc1ccc(F)c(Cl)c1)c1cccc(NS(=O)(=O)C2CCOC2)c1 (racemic) [Compound 202, (±)-N-(3-chloro-4-fluorophenyl)-3-(tetrahydrofuran-3-sulfonamido)benzamide] | < 10 µM
O=C(Nc1ccc(F)c(Cl)c1)c1cccc(NS(=O)(=O)CC2CCCO2)c1 (racemic) [Compound 203, (±)-N-(3-chloro-4-fluorophenyl)-3-((tetrahydrofuran-2-yl)methylsulfonamido)benzamide] | < 10 µM
COCC(C)S(=O)(=O)Nc1cccc(C(=O)Nc2ccc(F)c(Cl)c2)c1 (racemic) [Compound 204, (±)-N-(3-chloro-4-fluorophenyl)-3-(2-methoxy-1-methylethylsulfonamido)benzamide] | < 10 µM
CC1OCCC1S(=O)(=O)Nc1cccc(C(=O)Nc2ccc(F)c(Cl)c2)c1 (racemic) [Compound 205, (±)-N-(3-chloro-4-fluorophenyl)-3-(2-methyltetrahydrofuran-3-sulfonamido)benzamide] | < 10 µM
O=C(Nc1ccc(F)c(Cl)c1)c1cccc(NS(=O)(=O)C2CS(=O)(=O)CC2O)c1 (racemic) [Compound 206, (±)-N-(3-chloro-4-fluorophenyl)-3-(4-hydroxy-1,1-dioxidotetrahydrothiophene-3-sulfonamido)benzamide] | < 10 µM
O=C(Nc1cc(F)c(F)c(F)c1)c1ccc(F)c(SC2CCCC2)c1 [Compound 3, 3-(Cyclopentylthio)-4-fluoro-N-(3,4,5-trifluorophenyl)benzamide] | < 10 µM
CC(C)(C)Sc1cc(C(=O)Nc2cc(F)c(F)c(F)c2)ccc1F [Compound 5, 3-(tert-Butylthio)-4-fluoro-N-(3,4,5-trifluorophenyl)benzamide] | < 10 µM
O=C(Nc1cc(F)c(F)c(F)c1)c1ccc(F)c(SCCO)c1 [Compound 7, 4-Fluoro-3-((2-hydroxyethyl)thio)-N-(3,4,5-trifluorophenyl)benzamide] | < 10 µM
Cc1cc(NC(=O)c2ccc(F)c(SC3CCCCC3)c2)ccc1F [Compound 8, 3-(Cyclohexylthio)-4-fluoro-N-(4-fluoro-3-methylphenyl)benzamide] | < 10 µM
Cc1cc(NC(=O)c2ccc(F)c(SC3CCCC3)c2)ccc1F [Compound 9, 3-(Cyclopentylthio)-4-fluoro-N-(4-fluoro-3-methylphenyl)benzamide] | < 10 µM
O=C(Nc1cc(F)c(F)c(F)c1)c1ccc(F)c(SCCCO)c1 [Compound 17, 4-Fluoro-3-((3-hydroxypropyl)thio)-N-(3,4,5-trifluorophenyl)benzamide] | < 10 µM
CC(C)(O)CCSc1cc(C(=O)Nc2cc(F)c(F)c(F)c2)ccc1F [Compound 19, 4-Fluoro-3-((3-hydroxy-3-methylbutyl)thio)-N-(3,4,5-trifluorophenyl)benzamide] | < 10 µM
O=C(Nc1cc(F)c(F)c(F)c1)c1ccc(F)c(SCCCCO)c1 [Compound 23, 4-Fluoro-3-((4-hydroxybutyl)thio)-N-(3,4,5-trifluorophenyl)benzamide] | < 10 µM

SMILES | EC50
O=C(Nc1ccc(F)c(Cl)c1)c1ccc(F)c(SCCO)c1 [Compound 26, N-(3-Chloro-4-fluorophenyl)-4-fluoro-3-((2-hydroxyethyl)thio)benzamide] | < 10 µM
O=C(Nc1ccc(F)c(Cl)c1)c1ccc(F)c(SCCCO)c1 [Compound 27, N-(3-Chloro-4-fluorophenyl)-4-fluoro-3-((3-hydroxypropyl)thio)benzamide] | < 10 µM
O=C(Nc1ccc(F)c(Cl)c1)c1ccc(F)c(SCC2CCOCC2)c1 [Compound 47, N-(3-Chloro-4-fluorophenyl)-4-fluoro-3-(((tetrahydro-2H-pyran-4-yl)methyl)thio)benzamide] | < 10 µM
O=C(Nc1cc(F)c(F)c(F)c1)c1c[nH]c(=O)c(SC2CCCC2)c1 [Compound 48, 5-(Cyclopentylthio)-6-oxo-N-(3,4,5-trifluorophenyl)-1,6-dihydropyridine-3-carboxamide] | < 10 µM
CC(C)(Sc1cc(C(=O)Nc2ccc(F)c(Cl)c2)ccc1F)C(=O)O [Compound 51, 2-((5-((3-Chloro-4-fluorophenyl)carbamoyl)-2-fluorophenyl)thio)-2-methylpropanoic acid] | < 10 µM
O=C(Nc1ccc(F)c(Cl)c1)c1ccc(F)c(SC2CCCCCC2)c1 [Compound 52, N-(3-Chloro-4-fluorophenyl)-3-(cycloheptylthio)-4-fluorobenzamide] | < 10 µM
O=C(Nc1ccc(F)c(Cl)c1)c1ccc(F)c(SCC2COC2)c1 [Compound 60, N-(3-Chloro-4-fluorophenyl)-4-fluoro-3-((oxetan-3-ylmethyl)thio)benzamide] | < 10 µM
O=C(Nc1ccc(F)c(Cl)c1)c1ccc(F)c(SC2COC2)c1 [Compound 65, N-(3-Chloro-4-fluorophenyl)-4-fluoro-3-(oxetan-3-ylthio)benzamide] | < 10 µM
COc1ccc(C(=O)Nc2ccc(F)c(Cl)c2)cc1SC1CCCCC1 [Compound 69, N-(3-Chloro-4-fluorophenyl)-3-(cyclohexylthio)-4-methoxybenzamide] | < 10 µM
COc1ccc(C(=O)Nc2ccc(F)c(F)c2)cc1SC1CCCCC1 [Compound 80, 3-(Cyclohexylthio)-N-(3,4-difluorophenyl)-4-methoxybenzamide] | < 10 µM
O=C(Nc1cc(F)c(F)c(F)c1)c1ccnc(NS(=O)(=O)C2CC2)c1 [Compound 127, 2-(Cyclopropanesulfonamido)-N-(3,4,5-trifluorophenyl)isonicotinamide] | < 10 µM
O=C(Nc1ccc(F)c(F)c1)c1ccnc(NS(=O)(=O)C2CC2)c1 [Compound 128, 2-(Cyclopropanesulfonamido)-N-(3,4-difluorophenyl)isonicotinamide] | < 10 µM
CC1(S(=O)(=O)Nc2cc(C(=O)Nc3ccc(F)c(Cl)c3)ccn2)CC1 [Compound 130, N-(3-Chloro-4-fluorophenyl)-2-(1-methylcyclopropanesulfonamido)isonicotinamide] | < 10 µM
CCS(=O)(=O)Nc1cc(C(=O)Nc2ccc(F)c(Cl)c2)ccn1 [Compound 131] | < 10 µM
CCCS(=O)(=O)Nc1cc(C(=O)Nc2ccc(F)c(Cl)c2)ccn1 [Compound 133, N-(3-Chloro-4-fluorophenyl)-2-(propylsulfonamido)isonicotinamide] | < 10 µM
O=C(Nc1ccc(F)c(Cl)c1)c1ccnc(NS(=O)(=O)C2CCCCC2)c1 [Compound 134, N-(3-Chloro-4-fluorophenyl)-2-(cyclohexanesulfonamido)isonicotinamide] | < 10 µM
O=C(Nc1ccc(F)c(Cl)c1)c1cc(F)nc(NS(=O)(=O)C2CC2)c1 [Compound 137, N-(3-Chloro-4-fluorophenyl)-2-(cyclopropanesulfonamido)-6-fluoroisonicotinamide] | < 10 µM
O=C(Nc1ccc(F)c(Cl)c1)c1cc(F)nc(NS(=O)(=O)c2ccccc2)c1 [Compound 138, N-(3-Chloro-4-fluorophenyl)-2-fluoro-6-(phenylsulfonamido)isonicotinamide] | < 10 µM
O=C(Nc1ccc(F)c(Cl)c1)c1ccnc(NS(=O)(=O)Cc2ccccc2)c1 [Compound 139, N-(3-Chloro-4-fluorophenyl)-2-(phenylmethylsulfonamido)isonicotinamide] | < 10 µM
